According to patent publication US11459586B2, “Methods for increasing efficiency of nuclease-mediated gene editing in stem cells” (President and Fellows of Harvard College, priority 2016, dated 2022):
Peptide text beside a SMILES is read from it. * marks the point of attachment. Cbz = O=C(OCc1ccccc1)*; CH2F = FC*

Legend:
human iPSC = type: cell-based
Description: FIGS. 10A-F. Effect of Caspase and p38 MAPK inhibitors on survival and gene targeting of human iPSC. FIG. 10A and FIG. 10B. Mouse Thy1 gene targeting scheme. Human iPSC were nucleofected with the mThy1 targeting vector, Cas9 nuclease, and Thy1 sgRNA expressing plasmid or pUC19 empty vector. Nucleofected cells were evenly divided and plated onto plain media (mTeSR1+10 μM Y-27632 ROCK inhibitor), or media supplemented with the indicated chemical inhibitor. For specific caspase inhibitors, the principal caspase they target is noted in parentheses. […] FIG. 10C. Two days after nucleofection, viable cells were counted. Error bars indicate s.e.m. of technical duplicates. Lines mark the count levels for nucleofected cells in plain media with or without sgRNA. FIG. 10D. Five days after transfection, cells were analyzed by flow cytometry for mThy1 and hThy1 expression. The percent of mThy1^+hThy1^− (bottom of each bar) and mThy1^+hThy1^+ (top of each bar) cells of live single cells is indicated. Lines mark the levels for cells in plain media. […] FIG. 10E. FACS plots of human iPSC transfected with the mThy1 targeting vector, Cas9 nuclease, and Thy1 Left and Right sgRNAs. Cells were subsequently cultured for 5 days in plain media±50 μM zVAD and ±10 μM SB203580. FIG. 10F. Human iPSC cultures were single cell FACS sorted into 96-well tissue culture plates containing a MEF feeder layer and hES media supplemented with SMC4 inhibitors±50 μM zVAD for eight days. Ten days after sorting, the number of surviving iPSC colonies was counted (from 190 cells sorted). PGP1 hiPSC lines created using retroviral vectors or non-integrating methods were both tested.
Pluripotency of iPSC cultures was verified by flow cytometry staining using anti-human Tra-1/60 PE (TRA-1-60, BD) and anti-human Oct3/4 eFluor 660 (EM92, eBioscience) with the fixation buffer sold under the trademark BD CYTOFIX™ and permeabilization buffer sold under the trademark PHOSFLOW™ Perm/Wash buffers. Human g-band karyotype analysis was done by Cell Line Genetics. Viable cell counts were measured with the cell analyzer sold under the trademark MUSE® Count & Viability Assay kit (EMD Millipore). Anti-human HLA-A2 APC (BB7.2) and anti-human HLA-BC PE (B1.23.2) were purchased from eBioscience. Human iPSC cultures were treated with 50 ng/ml recombinant interferon gamma (eBioscience) for 2 days prior to HLA staining.
Plasmids were purified using the plasmid DNA purification kit sold under the trademark Qiagen ENDOFREE® Plasmid Maxi kit and nucleofected into iPSC cells using the Lonza 4D-Nucleofector X unit (Buffer P3, Program CB-150). For each 20 μl nucleofection reaction, 0.2-0.5×106 iPSC were transfected with up to 4 μg of plasmid DNA. Post-nucleofection, iPSC were plated onto solubilized basement membrane matrix secreted by Engelbreth-Holm-Swarm (EHS) mouse sarcoma cells sold under the trademark […]®-coated wells containing feeder-free cell culture medium sold under the trademark MTESR1™ media with 10 μM Y-27632 plus other chemical inhibitors when noted. Later experiments included 50 μM zVAD-fmk (Bachem) for 1 day and 10 μM SB203580 (Biovision) for 4-5 days post transfection (see FIGS. 5, 6, 11, and 12). For FIG. 6 (ssODN transfection), 200 ng/ml recombinant B 18R (eBioscience), was also added to the culture for 5 days post transfection.
The following inhibitors were added to the hiPSC culture at the concentrations and time periods indicated in the Examples below. • 1. p53 or Bax inhibitors: cyclic pifithrin α (StemCell Technologies); pifithrin (Tocris); peptide V5, peptide control, iMAC1 and iMAC2 (EMD Millipore); N-acetyl cysteine and 4-hydroxy TEMPO (TEMPOL) (Sigma). • 2.

[1] = system: human iPSC containing a doxycycline-inducible Cas9 nuclease; test: Cas9 nuclease toxicity in doxycycline-inducible Cas9 hiPSC (decline of CFP+EGFP+ cells); type: cell-based; details: zVAD added
Excerpt: FIGS. 1A-C. Cas9 nuclease toxicity in human iPSC only occurs with sgRNAs that target the human genome. FIG. 1A. A human iPSC line containing a doxycycline-inducible Cas9 nuclease was infected with lentivirus that constitutively expresses CFP together with an sgRNA. Three days after infection, each culture was divided into several wells and treated with the indicated concentrations of doxycycline for up to 14 days. FIG. 1B. At the indicated time points, the percent of CFP^+ of live single cells was determined by flow cytometry. […] FIG. 1C. 14 days after doxycycline induction, iPSC infected with the Thy1 sgRNA were stained for expression of the Thy1 surface marker and analyzed by flow cytometry. The percent of Thy1-negative edited cells gated on the CFP^+ infected cells is shown for varying concentrations of doxycycline. Results are representative of three independent experiments.
FIGS. 2A-B. Nuclease-mediated toxicity in human iPSC can be rescued by overexpression of dominant negative p53 or anti-apoptotic Bcl-2 family members. FIG. 2A. […] At the indicated time points, the percent of CFP EGFP^+ iPSC was determined by flow cytometry. […]
FIG. 13. […] At the indicated time points, the percent of CFP^+EGFP^+ iPSC was determined by flow cytometry. […]

CC(NC(=O)C(NC(=O)OCc1ccccc1)C(C)C)C(=O)NC(CC(=O)O)C(=O)CF (stereo not drawn) [zVAD] (Cbz-Val-Ala-Asp-CH2F; configuration not given here)
anoikis rescue (human iPSC; lower concentration, 25 μM): did not show as much anoikis rescue
rescue of hiPSC from cell death (anoikis) after nucleofection (human iPSC; viable cells two days after nucleofection, sgRNA plasmid or pUC19 control): rescued cells transfected with an sgRNA, and also those transfected with the pUC19 control
doxycycline-induced Cas9 nuclease toxicity [1]: did not affect
